In this assay the test system is T-cell leukemia cell line Jurkat. In words: Cell viability assay (Cell Counting Kit-8), Jurkat. The class given is cell-based. The note with it: Homo sapiens, 72 hours, CCK-8, absorbance 450 nm. The procedure: To evaluate the cytotoxicity of the compounds synthesized in the Preparation Examples against cancer cells, a cell viability assay following treatment with the synthesized compounds was performed using a T-cell leukemia cell line Jurkat (KCLB, Cat# 40152), a human acute monocytic leukemia cell line MV-4-11 (ATCC, Cat# CRL-9591), and a human multiple myeloma cell line MM.1S (ATCC, Cat# CRL-2974).
As a culture medium for the cell lines, an RPMI medium containing 10 % heat-inactivated FBS and 1 % penicillin/streptomycin (P/S) antibiotics was used. The culture medium was stored refrigerated and warmed in a 37 °C water bath before use. Each cell line was used for the test after a stabilization period of at least 2 weeks after thawing, and cell culture was performed based on information provided by the cell line manufacturer regarding the thawing and subculture conditions.
The Jurkat, MV-4-11, or MM.1S cell line was seeded in a 96-well plate at a density of 1 × 10^4 cells/well and incubated in a 37 °C CO2 incubator overnight. After incubation, a prepared test compound was applied to each cell line, and the cells were incubated in a 37 °C CO2 incubator for 72 hours. After 72 hours of incubation, a Cell Counting Kit-8 (Dojindo, Cat# CK04-20) reagent was added, and the cells were incubated in a 37 °C CO2 incubator. Then, the absorbance was measured at 450 nm using a SpectraMax M3 Microplate Reader (N=2, duplicate measurement). The evaluation concentrations for evaluating the cytotoxicity of the compounds were 10 points: 100 µM, 20 µM, 4 µM, 0.8 µM, 0.16 µM, 0.032 µM, 0.0064 µM, 0.00128 µM, 0.000256 µM, and 0 µM, and the test was performed at 2 wells/concentration point (n=2). A GI50 was derived using a GraphPad Prism program.
A general note: Formazan colour is commonly taken as a measure of viable cells.

A word on the GI50: it is the concentration at which growth is held to half of that of the control. Read a low GI50 as greater sensitivity of the cells. Consider `O=C1CCC(N2Cc3cc(C(=O)c4c[nH]c5ccc(Cl)cc45)ccc3C2=O)C(=O)N1` (stereo not shown) [Compound 8, 3-(5-(5-chloro-1H-indole-3-carbonyl)-1-oxoisoindolin-2-yl)piperidine-2,6-dione], for which the GI50 was no more than 100 nM.

In turn, `O=C1CCC(N2Cc3cc(C(=O)c4cn(Cc5ccccc5)c5ccccc45)ccc3C2=O)C(=O)N1` (stereo not shown) [Compound 32, 3-(5-(1-benzyl-1H-indole-3-carbonyl)-1-oxoisoindolin-2-yl)piperidine-2.6-dione] showed a GI50 of 100 to 1000 nM.

Compound `O=C1CCC(N2Cc3cc(C(=O)C4CCCC4)ccc3C2=O)C(=O)N1` (stereo not shown) [Compound 39, 3-(5-(cyclopentanecarbonyl)-1-oxoisoindolin-2-yl)piperidine-2,6-dione] showed a GI50 of 1000 to 10000 nM.

Compound `O=C1CCC(N2Cc3cc(C(=O)c4ccc(F)cc4)ccc3C2=O)C(=O)N1` (stereo not shown) [Compound 40, 3-(5-(4-fluorobenzoyl)-1-oxoisoindolin-2-yl)piperidine-2,6-dione] displayed a 50% growth inhibitory concentration (GI50) of 100 to 1000 nM.

On to `O=C1CCC(N2Cc3cc(C(=O)c4ccc(N5CCCCC5)cc4)ccc3C2=O)C(=O)N1` (stereo not shown) [Compound 41, 3-(1-oxo-5-(4-(piperidin-1-yl)benzoyl)isoindolin-2-yl)piperidine-2,6-dione], for which the GI50 lay within 100 to 1000 nM.

In turn, `O=C1CCC(N2Cc3cc(C(=O)c4cccc5ccccc45)ccc3C2=O)C(=O)N1` (stereo not shown) [Compound 43, 3-(5-(1-naphthoyl)-1-oxoisoindolin-2-yl)piperidine-2,6-dione] gave a GI50 of 1000 to 10000 nM.

For the compound `O=C1CCC(N2Cc3cc(C(=O)c4ccc(OC(F)(F)F)cc4)ccc3C2=O)C(=O)N1` (stereo not shown) [Compound 45, 3-(1-oxo-5-(4-(trifluoromethoxy)benzoyl)isoindolin-2-yl)piperidine-2,6-dione], the GI50 was in the range of 100 to 1000 nM.

For `O=C1CCC(N2Cc3cc(C(=O)c4ccc(Cl)cc4)ccc3C2=O)C(=O)N1` (stereo not shown) [Compound 48, 3-(5-(4-chlorobenzoyl)-1-oxoisoindolin-2-yl)piperidine-2,6-dione], the GI50 is 100 to 1000 nM.

`O=C1CCC(N2Cc3cc(C(=O)c4ccc(C(F)(F)F)cc4)ccc3C2=O)C(=O)N1` (stereo not shown) [Compound 50, 3-(1-oxo-5-(4-(trifluoromethyl)benzoyl)isoindolin-2-yl)piperidine-2,6-dione] gave a concentration for 50% growth inhibition (GI50) of 100 to 1000 nM.

With `COc1ccc(C(=O)c2ccc3c(c2)CN(C2CCC(=O)NC2=O)C3=O)cc1` (stereo not shown) [Compound 51, 3-(5-(4-methoxybenzoyl)-1-oxoisoindolin-2-yl)piperidine-2,6-dione], the GI50 is 100 to 1000 nM.

Take `O=C1CCC(N2Cc3cc(C(=O)c4ccc(OCc5ccccc5)cc4)ccc3C2=O)C(=O)N1` (stereo not shown) [Compound 53, 3-(5-(4-(benzyloxy)benzoyl)-1-oxoisoindolin-2-yl)piperidine-2,6-dione]: the GI50 lay in the range of 100 to 1000 nM.

`Cc1ccc(C(=O)c2ccc3c(c2)CN(C2CCC(=O)NC2=O)C3=O)cc1` (stereo not shown) [Compound 54, 3-(5-(4-methylbenzoyl)-1-oxoisoindolin-2-yl)piperidine-2,6-dione] displayed a GI50 of 100 to 1000 nM.

`Cc1cccc(C(=O)c2ccc3c(c2)CN(C2CCC(=O)NC2=O)C3=O)c1` (stereo not shown) [Compound 61, 3-(5-(3-methylbenzoyl)-1-oxoisoindolin-2-yl)piperidine-2,6-dione] returned a GI50 of no more than 100 nM.

Turning to `Nc1ccc(C(=O)c2ccc3c(c2)CN(C2CCC(=O)NC2=O)C3=O)cc1` (stereo not shown) [Compound 64, 3-(5-(4-aminobenzoyl)-1-oxoisoindolin-2-yl)piperidine-2,6-dione], the GI50 was in the range of 100 to 1000 nM.

Regarding `O=C1CCC(N2Cc3cc(C(=O)c4ccc[nH]4)ccc3C2=O)C(=O)N1` (stereo not shown) [Compound 73, 3-(1-oxo-5-(1H-pyrrole-2-carbonyl)isoindolin-2-yl)piperidine-2,6-dione], the GI50 is no more than 100 nM.

`O=C1CCC(N2Cc3cc(C(=O)c4ccc5ncsc5c4)ccc3C2=O)C(=O)N1` (stereo not shown) [Compound 76, 3-(5-(benzo[d]thiazole-6-carbonyl)-1-oxoisoindolin-2-yl)piperidine-2,6-dione] gave a GI50 of no more than 100 nM.
